Experimental findings from patent publication US20240417727A1, “ANTAGONIST OF THE MIRNA-106B-5P TO TREAT OR PREVENT THE CARDIOTOXICITY THAT IS DEVELOPED IN ONCOLOGIC PATIENTS AFTER RECEIVING ANTHRACYCLINE-BASED CHEMOTHERAPY” (UNIVERSIDAD DE MURCIA, priority 2021, published 2024) are described below.

For one data set, the system named is sST2. As to the kind of experiment: sST2 expression levels in hiPsCMs. The format is cell-based, human. The following applies: Dox 15 h. As to the method: RNA isolation and quantitative RT-PCR.
(§1) Protein extracts (10 μg) obtained were denatured, separated by SDS-PAGE electrophoresis (Bio-Rad), transferred onto PVDF membrane (Millipore) and probed with antibodies to GADPH (MERCK, 8795,1:5000), TBP (CELL SIGNALING, 8515, 1:1000), PR55α (CELL SIGNALING, 5689, 1:1000), phospho-HDAC4 (ABCAM, ab39408, 1:2000), HDAC4 (CELL SIGNALING, 5392, 1:1000), YY1 (CELL SIGNALING, 2185,1:1000) and sST2 (PROTEINTECH, 11,920-1-AP, 1:1000). Membranes were developed using HRP conjugated secondary antibodies and Pierce ECL western blotting substrate (Thermo Fisher Scientific). Signals were detected by chemiluminescence and quantified using ImageJ 1.44p pixel analysis (US National Institutes of Health).

A further data set concerns HDAC4-YY1 interaction. As to the kind of experiment: Reciprocal co-immunoprecipitation of HDAC4 and YY1 in nuclear fraction of hiPsCMs. Type of data set: cell-based, human. The following applies: nuclear fraction from hiPsCMs. As to the method: Briefly, fresh LV (˜30 mg) tissue or harvested untreated or treated cells (˜3×10^6 cells) were washed using cold DPBS along with 100-fold diluted protease and phosphatase inhibitors. Human cardiomyocytes were pelleted by centrifugation at 480×g for 10 min at 4° C., while the myocardium was placed in a pre-chilled glass Petri dish and minced on ice using sharp scissors. All samples were homogenized in 500 μl of STM buffer at pH 7.4, containing 250 mM sucrose, 50 mM Tris-HCl, 5 mM MgCl2, 5 mM Na3VO4, 1% (v/v) protease and phosphatase inhibitor cocktails and homogenized for 1 min on ice using a tight-fitting Teflon pestle attached to a Potter S. homogenizer (Sartorius Stedium, Goettingen, Germany) set to 800 rpm. The homogenate was maintained on ice for 30 min, vortexed at maximum speed for 15 s and then centrifuged at 800×g for 15 min at 4° C. The pellet was labelled as P0 and kept on ice; the supernatant was labelled as S0. The pellet P0 (containing nuclei and debris) was resuspended in 500 μl STM buffer, vortexed at maximum speed for 15 s and then centrifuged at 500×g for 15 min at 4° C. Following the above step, the nuclear pellet was labelled as P1 and kept on ice, and the supernatant S1 (cell debris) was discarded. […] The protein content of each compartment was determined using the BCA protein assay^48. […]

The test system of another data set is PR55α. Briefly: PR55α expression levels by Western blot in hiPsCMs. Type of data set: cell-based, human. Conditions: for decrease in PR55α protein levels: Dox. The source says:
The hsa-miR-106b-5p sequence of nucleotides was obtained from www.MiRbase.org. Human miR-106b (accession No: MIMAT0000680) and nucleotide sequence of 5′-[…]-3′ are homologous between mice and man. In order to express or block the specific miR-106b function, synthetic pre-miR-106b or antimiR-106 oligonucleotides were transfected into hiPsCMs cells, respectively. Lipofectamine RNAiMAX transfection reagent (ThermoFisher) was used according to the manufacturer's instructions. […] Two day before transfection, hiPsCMs cells were seeded in 6-well plates with 2 ml of STEMdiff™ Cardiomyocyte Support Medium (STEMCELL™ Technologies) to a density of 60%. Stock transfection mixes were made according to manufacturer's instructions. Briefly, 9 μl of Lipofectamine reagent was diluted in 141 μl of Opti-MEM I Medium (Invitrogen) and incubated 5 min at RT. In another tube, pre-miRNA, anti-miRNA or the specific controls oligonucleotides were diluted with Opti-MEM to a final concentration of 50 nM. Both mixes were incubated together for 30 min at RT to allow complex formation between miRNA and lipids. To transfect cells, the STEMdiff™ Cardiomyocyte Support Medium was removed and replaced with 1.75 ml fresh Medium and 250 μl of the appropriate transfection mix. Cells were incubated at 37° C. for […], after which hiPsCMs were treated with […] Dox for 15 h. Transfection efficiency was tested in parallel using both hiPsCMs as well as a mouse cell line HL-1 (FIG. 7). […]
(§2) Protein extracts (10 μg) obtained were denatured, separated by SDS-PAGE electrophoresis (Bio-Rad), transferred onto PVDF membrane (Millipore) and probed with antibodies to GADPH (MERCK, 8795,1:5000), TBP (CELL SIGNALING, 8515, 1:1000), PR55α (CELL SIGNALING, 5689, 1:1000), phospho-HDAC4 (ABCAM, ab39408, 1:2000), HDAC4 (CELL SIGNALING, 5392, 1:1000), YY1 (CELL SIGNALING, 2185,1:1000) and sST2 (PROTEINTECH, 11,920-1-AP, 1:1000). […] Signals were detected by chemiluminescence and quantified using ImageJ 1.44p pixel analysis (US National Institutes of Health).
For orientation: A western blot detects proteins with antibodies after separation by electrophoresis.

The next data set has as its system miR-106b. Briefly: miR-106b levels by quantitative RT-PCR in hiPsCMs exposed to Dox. Type of data set: cell-based, human. The following applies: 5 μM Dox.
Another data set has as its system HDAC4. As to the kind of experiment: Phosphorylated and total HDAC4 in cytosol and nucleus (subcellular fractionation, Western blot). The format is cell-based, human. The following applies: hiPsCMs; for phosphorylation state of HDAC4 Ser246 in cytosol: Dox 15 h, preincubation 24 h before Dox; for total HDAC4 levels in nuclei fractions: Dox, pretreatment before Dox. Here is the method:
Briefly, fresh LV (˜30 mg) tissue or harvested untreated or treated cells (˜3×10^6 cells) were washed using cold DPBS along with 100-fold diluted protease and phosphatase inhibitors. Human cardiomyocytes were pelleted by centrifugation at 480×g for 10 min at 4° C., while the myocardium was placed in a pre-chilled glass Petri dish and minced on ice using sharp scissors. All samples were homogenized in 500 μl of STM buffer at pH 7.4, containing 250 mM sucrose, 50 mM Tris-HCl, 5 mM MgCl2, 5 mM Na3VO4, 1% (v/v) protease and phosphatase inhibitor cocktails and homogenized for 1 min on ice using a tight-fitting Teflon pestle attached to a Potter S. homogenizer (Sartorius Stedium, Goettingen, Germany) set to 800 rpm. The homogenate was maintained on ice for 30 min, vortexed at maximum speed for 15 s and then centrifuged at 800×g for 15 min at 4° C. The pellet was labelled as P0 and kept on ice; the supernatant was labelled as S0. The pellet P0 (containing nuclei and debris) was resuspended in 500 μl STM buffer, vortexed at maximum speed for 15 s and then centrifuged at 500×g for 15 min at 4° C. Following the above step, the nuclear pellet was labelled as P1 and kept on ice, and the supernatant S1 (cell debris) was discarded. To further increase the purity of the P1 fraction it was washed in 400 μl STM buffer, vortexed at maximum speed for 15 s and then centrifuged at 1000×g for 15 min at 4° C. The washed pellet was labelled as P2 (S2 was discarded) and resuspended in 100 μl NET buffer composed of 20 mM Hepes pH 7.9, 1.5 mM MgCl2, 0.5 M NaCl, 0.2 mM EDTA, 20% (v/v) glycerol, 1% (v/v) Triton-X-100 and protease and phosphatase inhibitors, using a pipette to triturate until homogeneity. Pellet P2 was vortexed at maximum speed for 15 s and incubated on ice for 30 min; the resulting fraction contained the nuclei, which were lysed by sonication (Soniprep 150, MSE, London, UK) at a high setting for 10-15 s with 30 s pauses whilst being kept on ice. The lysate was centrifuged at 9000×g for 30 min at 4° C., the resultant supernatant (S3) was the final “nuclear fraction”. […] The protein content of each compartment was determined using the BCA protein assay^48. […]
as §2

In another data set the test system is YY1. As to the kind of experiment: YY1 expression levels by Western blot in hiPsCMs. The format is cell-based, human. The following applies: Dox. Here is the method: as §1
The subject of data set [1] is hiPsCMs. As to the kind of experiment: Assay for cell viability (MTT). The format is cell-based, human. Conditions: Dox 15 h. As to the method:
After seeding 5×10^3 cells in each 96-well plate, they were incubated in 5% CO2 at 37° C. for 24 h. After cited treatment, MTT solution (1 mg/ml) was added to each well and an incubation was performed for 3 h at 37° C. Next, the medium containing MTT was removed and 100 μL of DMSO was added to each well and pipetted several times to form a completely uniform suspension. The solution was then shaken for 10 min at 37° C. until formazan crystals were completely dissolved. The obtained solution was added to a microtube and centrifuged in 1500 RPM for 5 min to eliminate any impurities. Absorbance of the samples was read at 570 nm and the background value at 690 nm was subtracted. The intrinsic absorbance value of doxorubicin was subtracted when necessary. The index of cell survival at each time point corresponds to the percentage with respect to control.

The test system of the next data set is PP2A. As to the kind of experiment: PP2A Immunoprecipitation Phosphatase Assay. The format is cell-based, human. The following applies: hiPsCMs, Dox treatment. Here is the method: To measure PP2A phosphatase activity, we used a PP2A Immunoprecipitation Phosphatase Assay Kit (Millipore Sigma, catalog number 17-313). In brief, cells were lysed in 20 mM imidazole HCl, 2 mM EDTA, 2 mM EGTA, pH 7.0 with 10 μg/mL each of aprotinin, leupeptin, pepstatin, 1 mM benzamidine, and 1 mM PMSF. Two milligrams of the lysates were then immunoprecipitated with 2 μg of anti-STRN4 antibody (Abcam, ab177155) and 40 μl of protein-A-agarose beads at 4° C. overnight. Beads were washed three times with lysis buffer followed by the Ser/Thr assay buffer. Phosphatase reactions were then performed in Ser/Thr assay buffer with a final concentration of 750 μM of MAP4K4 phosphopeptides: S771/S775 (A-A-S-pS-L-N-L-pS-N-G-E-T-E-S-V-K), S876 (L-T-A-N-E-T Q-pS-A-S-S-T-L-Q-K) or S1251 (V-F-F-A-pS-V-R-S) for 10 min at 30° C. To provide evidence that the immunoprecipitated phosphatase activity is PP2A, we treated parallel immunoprecipitates with 5 nM of okadaic acid (Cell Signaling, #5934). Dephosphorylation of the phosphopeptide was measured through malachite green phosphate detection at 650 nm.

Data set [2] has as its system miR-106b target FOG2 in hiPsCMs. As to the kind of experiment: FOG2 mRNA levels (efficiency of miR-106b inhibition) in hiPsCMs. The format is cell-based, human. Conditions: preincubation 24 h, then Dox 15 h, vs AC.
The subject of a further data set is HL-1 cell line. As to the kind of experiment: FOG2 mRNA levels in HL-1 cell line. The format is cell-based, mouse. The following applies: 5 μM Dox for 15 h.
For data set [3], the system named is hiPsCMs. As to the kind of experiment: LDH levels in cell supernatant from hiPsCMs. The format is cell-based, human. Conditions: Dox 15 h.
For data set [4], the system named is Caspase 3/7 activity in hiPsCMs. Briefly: Caspase-Glo 3/7 assay. The format is cell-based, human. Conditions: 5 μM Dox 15 h. As to the method:
Caspase assay was performed as per the manufacturer's instructions with the Caspase-Glo 3/7 kit (Promega). In this setting, hiPsCMs were treated with 5 μM Dox for 15 h. Next, hiPsCMs and caspase assay reagent were left at RT for 30 min. The next step was adding an equal amount of caspase assay reagent and further incubated for 30 min at RT. Luminescence was measured using a microplate reader CLARIOstar Plus (BMG Labtech).

On to `COc1cccc2c1C(=O)c1c(O)c3c(c(O)c1C2=O)C[C@@](O)(C(=O)CO)C[C@@H]3O[C@H]1C[C@H](N)[C@H](O)[C@H](C)O1` [Dox, doxorubicin], for which, in the data set on sST2, the sST2 expression levels entry is given as “increase in sST2 expression levels”. Moreover, the HDAC4-YY1 interaction result with HDAC4-YY1 interaction was “prevent HDAC4-YY1 interaction”. The “decrease in PR55α protein levels” value was 2.6±0.02 fold control in the data set with PR55α (6 h of treatment) and “significantly higher” in the data set on PR55α (15 h, p<0.001). In addition, the “miR-106b levels in hiPsCMs” value in the data set with miR-106b (3 h of treatment) is 2.3±0.03 fold control; with miR-106b (15 h, p<0.001), “significantly higher”. For the same compound, the “miR-106b levels in the culture media of hiPsCMs” value in the data set on miR-106b (significant from 15 h) is reported as “progressively increased”. Moreover, the “phosphorylation state of HDAC4 Ser246 in cytosol” value in the data set on HDAC4 was “significantly increases”. The “total HDAC4 levels in nuclei fractions” value in the data set with HDAC4 is given as “significative decrease in total HDAC4 levels”. The YY1 protein expression with YY1 (6 h of treatment) is 3.8±0.23 fold control; in the data set with YY1 (15 h, p<0.001), “significantly higher”.
With “AM106: miRCURY LNA microRNA Inhibitor against miR-106b-5p, 5′-CACTGTCAGCACTTT-3′ (SEQ ID NO 3), sequence shown without LNA pattern (antisense CACUGUCAGCACUUU; LNA-modified inhibitor, LNA pattern not given here)”, in the data set with hiPsCMs [1], the “loss of Dox-induced cell viability” value is on record as “able to prevent”. Besides, in the data set with sST2, the sST2 expression levels entry is “reverted this effect”. For the same compound, the PP2A activity entry in the data set with PP2A was “prevented Dox-induced PP2A activity decrease”. In addition, the “FOG2 mRNA levels” value in data set [2] was “prevent down-regulation of FOG2 mRNA levels”. Also, in the data set on HDAC4-YY1 interaction, the HDAC4-YY1 interaction result is given as “favored these interaction”. Besides, in the data set on HL-1 cell line, the “FOG2 mRNA levels” value is listed as “increases FOG2 mRNA levels”. Also, the PR55α levels entry in the data set with PR55α (with or without Dox) was “prevented Dox-induced PR55α degradation”. Also, in the data set on hiPsCMs [3], the “release of LDH” value is recorded as “prevent the release of LDH”. Also, in data set [4], the “caspase 3/7 activity (myocardial apoptosis)” value was “decrease in caspase 3/7 activity”. In addition, in the data set on HDAC4, the “phosphorylation state of HDAC4 Ser246 in cytosol” value is “decreased phosphorylation state of HDAC4” and the “total HDAC4 levels in nuclei fractions” value is recorded as “increased”.
